Non-standard residues stand in square brackets, D forms with d. Residues, ends and D or L forms follow the SMILES beside them. dPhe(4-Cl) = N[C@H](Cc1ccc(Cl)cc1)C(=O)O; d2Nal = N[C@H](Cc1ccc2ccccc2c1)C(=O)O; dCit = NC(=O)NCCC[C@@H](N)C(=O)O; d3Pal = N[C@H](Cc1cccnc1)C(=O)O
What was measured:
[1] = comparison with existing therapies; cited from earlier work
[2] = Tolerability of premedication, comparison with existing therapies; assay type: in vivo, human; conditions: short treatment period of from 7 to 10 days
E2 = assay: Clinical experiment: E2 level during cetrorelix pamoate treatment; assay type: in vivo, human
Description: (§1) Injection of 60 mg of cetrorelix on days 2 and 28 of the menstrual cycle.

myoma = assay: Hysteroscopic and laparoscopic myoma resection after cetrorelix therapy; assay type: in vivo, human; conditions: 2 months after beginning the cetrorelix therapy
Description: Treatment of a patient with uterine fibrosis, which was operated on. Injection of 60 mg of cetrorelix on days 2 and 28 of the menstrual cycle.

endometrium = assay: Clinical experiment: endometrium measured by ultrasonics during cetrorelix pamoate treatment; assay type: in vivo, human
Description: as §1

[3] = Day 14 after 1st injection 60 mg
[4] = Day 21 after 1st injection 60 mg
[5] = Day 28, day of 2nd injection 60 mg

SMILES | side effects / drawbacks of existing therapies [1] | side effects [2] | E2 (E2; Day 0, day of 1st injection 60 mg (baseline)) | E2 (E2; Day 7 after 1st injection 60 mg) | E2 (E2; [3]) | E2 (E2; [4]) | E2 (E2; [5]) | E2 (E2; Day 42, after 2 injections of 60 mg) | E2 (E2; Day 55, end of the study) | E2 (E2; Day of operation (07.05.96)) | blood loss at hysteroscopic and laparoscopic myoma resection (myoma) | endometrial growth during the treatment (endometrium; 60 mg on days 2 and 28 of the menstrual cycle, measured by ultrasonics) | Endometrium (endometrium; Day 7 after 1st injection 60 mg, patient with uterine fibrosis) | Endometrium (endometrium; [3]) | Endometrium (endometrium; [4]) | Endometrium (endometrium; [5]) | Endometrium (endometrium; Day 42, after 2 injections of 60 mg (Day 0, Day 28)) | Endometrium (endometrium; Day 55, end of the study, after 2 injections of 60 mg) | onset of decrease of the thickness of the endometrial layer (endometrium; after injecting)
C#C[C@]1(O)CC[C@H]2[C@@H]3CCC4=Cc5oncc5C[C@]4(C)[C@H]3CC[C@@]21C [Danazol] | acne, hirsutism and increase in weight |  |  |  |  |  |  |  |  |  |  |  |  |  |  |  |  |  | 
CC(=O)N[C@H](Cc1ccc2ccccc2c1)C(=O)N[C@H](Cc1ccc(Cl)cc1)C(=O)N[C@H](Cc1cccnc1)C(=O)N[C@@H](CO)C(=O)N[C@@H](Cc1ccc(O)cc1)C(=O)N[C@H](CCCNC(N)=O)C(=O)N[C@@H](CC(C)C)C(=O)N[C@@H](CCCNC(=N)N)C(=O)N1CCC[C@H]1C(=O)N[C@H](C)C(N)=O [cetrorelix pamoate] (Ac-[d2Nal][dPhe(4-Cl)][d3Pal]SY[dCit]LRP[dA]-NH2) |  | no side effects | 25 pg/mL | < 5 pg/mL | 17 pg/mL | 40 pg/mL | 88 pg/mL | 25 pg/mL | 73 pg/mL | 114 pg/mL | without any significant blood loss | did not exhibit any growth | 2 mm | flat/even | 3.1 mm | flat/even | flat/even | flat/even | begins to decrease immediately
